Earlier results in patent publication US11174289B1, “Artificial intelligence designed antimicrobial peptides” (International Business Machines Corporation, priority 2020, dated 2021).

What was measured:
[1] = no significant antimicrobial activity; strain not given
[2] = comparison value for the clinically used drug

In the case of FPVTWPTKWWKG [PuroB], the MIC [1] is listed as over 200 µg/mL.

For polymyxin B, the LD50 [2] is listed as 20.5 mg/kg.
